One block for each compound: values may come before it. The source made the active and inactive calls. The rule behind the calls is not given here.
Experiments:
MDA-MB-231 [1] = assay: Induction of apoptosis in human MDA-MB-231 cells harboring wild-type BRCA assessed as necrotic cells at 5 uM incubated for 48 hrs by Annexin V-FITC/PI staining based flow cytometry analysis (reference value: 1.68%); format: functional
[2] = target: Poly [ADP-ribose] polymerase 1 (Homo sapiens, UniProt P09874); assay: Inhibition of PARP1 (unknown origin)
Chain of Poly [ADP-ribose] polymerase 1 (P09874 whole entry): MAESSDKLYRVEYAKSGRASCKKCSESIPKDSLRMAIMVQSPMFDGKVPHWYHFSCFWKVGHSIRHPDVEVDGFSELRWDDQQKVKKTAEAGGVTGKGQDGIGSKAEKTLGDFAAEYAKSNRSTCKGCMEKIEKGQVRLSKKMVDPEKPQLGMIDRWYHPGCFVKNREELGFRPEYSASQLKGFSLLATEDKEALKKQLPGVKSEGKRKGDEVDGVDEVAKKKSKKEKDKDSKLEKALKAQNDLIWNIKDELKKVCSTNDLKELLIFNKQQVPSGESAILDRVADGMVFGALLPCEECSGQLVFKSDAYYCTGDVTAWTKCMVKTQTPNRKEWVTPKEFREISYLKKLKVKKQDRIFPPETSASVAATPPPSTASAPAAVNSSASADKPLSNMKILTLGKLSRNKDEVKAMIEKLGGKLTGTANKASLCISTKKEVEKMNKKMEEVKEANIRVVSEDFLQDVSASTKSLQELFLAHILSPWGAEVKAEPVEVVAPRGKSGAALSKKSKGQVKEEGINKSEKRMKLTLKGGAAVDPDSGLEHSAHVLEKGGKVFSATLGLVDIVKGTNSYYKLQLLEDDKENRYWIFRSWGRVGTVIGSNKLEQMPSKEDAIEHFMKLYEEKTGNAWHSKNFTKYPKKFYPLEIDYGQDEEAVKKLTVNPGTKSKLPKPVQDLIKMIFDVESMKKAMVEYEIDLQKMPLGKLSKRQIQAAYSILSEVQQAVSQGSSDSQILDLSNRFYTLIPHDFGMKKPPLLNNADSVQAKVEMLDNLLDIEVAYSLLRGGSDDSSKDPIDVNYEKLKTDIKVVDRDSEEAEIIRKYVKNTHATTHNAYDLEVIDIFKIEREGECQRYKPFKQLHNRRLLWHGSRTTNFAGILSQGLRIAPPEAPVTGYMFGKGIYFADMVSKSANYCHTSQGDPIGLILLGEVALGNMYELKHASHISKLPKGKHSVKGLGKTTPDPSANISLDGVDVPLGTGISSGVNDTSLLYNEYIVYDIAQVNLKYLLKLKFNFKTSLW

MDA-MB-231 [3] = assay: Antimigratory activity against human MDA-MB-231 cells at 10 uM incubated for 48 hrs by wound healing assay; format: functional, cell-based
MDA-MB-231 [4] = assay: Induction of apoptosis in human MDA-MB-231 cells harboring wild-type BRCA assessed as late apoptotic cells at 10 uM incubated for 48 hrs by Annexin V-FITC/PI staining based flow cytometry analysis (reference value: 2.38%); format: functional
MDA-MB-231 [5] = assay: Antimigratory activity against human MDA-MB-231 cells at 10 uM incubated for 48 hrs by Transwell migration assay; format: functional, cell-based
MDA-MB-231 [6] = assay: cells; conditions: Homo sapiens
MDA-MB-231 [7] = assay: Induction of apoptosis in human MDA-MB-231 cells harboring wild-type BRCA assessed as viable cells at 5 uM incubated for 48 hrs by Annexin V-FITC/PI staining based flow cytometry analysis (reference value: 94.3%); format: functional; conditions: read-out: Activity
MDA-MB-231 [8] = assay: Induction of DNA damage in human MDA-MB-231 cells assessed as increase in gammaH2AX levels at 5 to 10 uM incubated for 48 hrs by DAPI staining based Immunofluorescence analysis; format: functional, cell-based; conditions: dose 5-10 µM
MDA-MB-231 [9] = assay: Induction of apoptosis in human MDA-MB-231 cells harboring wild-type BRCA assessed as necrotic cells at 10 uM incubated for 48 hrs by Annexin V-FITC/PI staining based flow cytometry analysis (reference value: 1.68%); format: functional
[10] = target: Nicotinamide phosphoribosyltransferase (Homo sapiens, UniProt P43490); assay: Inhibition of NAMPT (unknown origin)
Chain of Nicotinamide phosphoribosyltransferase (P43490 whole entry): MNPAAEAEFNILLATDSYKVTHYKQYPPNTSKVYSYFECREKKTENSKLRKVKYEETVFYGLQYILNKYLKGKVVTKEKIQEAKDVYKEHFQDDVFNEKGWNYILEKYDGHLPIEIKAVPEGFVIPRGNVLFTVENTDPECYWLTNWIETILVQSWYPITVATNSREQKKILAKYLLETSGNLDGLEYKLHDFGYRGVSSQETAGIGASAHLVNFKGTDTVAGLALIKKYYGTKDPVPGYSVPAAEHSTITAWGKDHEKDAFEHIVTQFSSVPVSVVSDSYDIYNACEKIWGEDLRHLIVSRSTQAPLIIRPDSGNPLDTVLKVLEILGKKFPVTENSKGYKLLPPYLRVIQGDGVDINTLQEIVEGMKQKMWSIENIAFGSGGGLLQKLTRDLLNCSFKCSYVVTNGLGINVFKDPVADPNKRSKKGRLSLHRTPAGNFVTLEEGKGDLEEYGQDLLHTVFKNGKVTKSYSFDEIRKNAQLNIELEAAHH

MDA-MB-231 [11] = assay: Induction of apoptosis in human MDA-MB-231 cells harboring wild-type BRCA assessed as early apoptotic cells at 10 uM incubated for 48 hrs by Annexin V-FITC/PI staining based flow cytometry analysis (reference value: 1.60%); format: functional
MDA-MB-231 [12] = assay: Downregulation of Rad51 level in human MDA-MB-231 cells at 5 to 10 uM by Western blot analysis; format: functional, cell-based; conditions: dose 5-10 µM
MDA-MB-436 = assay: cells; conditions: Homo sapiens
MDA-MB-231 [13] = assay: Induction of apoptosis in human MDA-MB-231 cells harboring wild-type BRCA incubated for 48 hrs by Annexin V-FITC/PI staining based flow cytometry analysis; format: functional, cell-based; conditions: dose 5-10 µM
MDA-MB-231 [14] = assay: Induction of apoptosis in human MDA-MB-231 cells harboring wild-type BRCA assessed as early apoptotic cells at 5 uM incubated for 48 hrs by Annexin V-FITC/PI staining based flow cytometry analysis (reference value: 1.60%); format: functional
MDA-MB-231 [15] = assay: Induction of apoptosis in human MDA-MB-231 cells harboring wild-type BRCA assessed as late apoptotic cells at 5 uM incubated for 48 hrs by Annexin V-FITC/PI staining based flow cytometry analysis (reference value: 2.38%); format: functional
MDA-MB-231 [16] = assay: Downregulation of BRCA1 level in human MDA-MB-231 cells at 5 to 10 uM by Western blot analysis; format: functional, cell-based; conditions: dose 5-10 µM
MDA-MB-231 [17] = assay: Induction of apoptosis in human MDA-MB-231 cells harboring wild-type BRCA assessed as viable cells at 10 uM incubated for 48 hrs by Annexin V-FITC/PI staining based flow cytometry analysis (reference value: 94.3%); format: functional; conditions: read-out: Activity
MDA-MB-231 [18] = assay: Synergistic anti-proliferative activity against human MDA-MB-231 cells harboring wild-type BRCA assessed as combination index at 10 to 40 uM in presence of olaparib; format: functional; conditions: dose 10-40 µM
MDA-MB-231 [19] = assay: Induction of apoptosis in human MDA-MB-231 cells harboring wild-type BRCA assessed as early apoptotic cells at 15 uM incubated for 48 hrs in presence of Olaparib by Annexin V-FITC/PI staining based flow cytometry analysis (reference value: 1.60%); format: functional
MDA-MB-231 [20] = assay: Induction of apoptosis in human MDA-MB-231 cells harboring wild-type BRCA assessed as viable cells at 15 uM incubated for 48 hrs by Annexin V-FITC/PI staining based flow cytometry analysis (reference value: 94.3%); format: functional; conditions: read-out: Activity
MDA-MB-231 [21] = assay: Induction of apoptosis in human MDA-MB-231 cells harboring wild-type BRCA assessed as necrotic cells at 15 uM incubated for 48 hrs in presence of Olaparib by Annexin V-FITC/PI staining based flow cytometry analysis (reference value: 1.68%); format: functional
MDA-MB-231 [22] = assay: Induction of apoptosis in human MDA-MB-231 cells harboring wild-type BRCA assessed as viable cells at 15 uM incubated for 48 hrs in presence of Olaparib by Annexin V-FITC/PI staining based flow cytometry analysis (reference value: 94.3%); format: functional; conditions: read-out: Activity
MDA-MB-231 [23] = assay: Induction of apoptosis in human MDA-MB-231 cells harboring wild-type BRCA assessed as necrotic cells at 15 uM incubated for 48 hrs by Annexin V-FITC/PI staining based flow cytometry analysis (reference value: 1.68%); format: functional
MDA-MB-231 [24] = assay: Induction of apoptosis in human MDA-MB-231 cells harboring wild-type BRCA assessed as late apoptotic cells at 15 uM incubated for 48 hrs by Annexin V-FITC/PI staining based flow cytometry analysis (reference value: 2.38%); format: functional
MDA-MB-231 [25] = assay: Induction of apoptosis in human MDA-MB-231 cells harboring wild-type BRCA assessed as early apoptotic cells at 15 uM incubated for 48 hrs by Annexin V-FITC/PI staining based flow cytometry analysis (reference value: 1.60%); format: functional
MDA-MB-231 [26] = assay: Induction of apoptosis in human MDA-MB-231 cells harboring wild-type BRCA assessed as late apoptotic cells at 15 uM incubated for 48 hrs in presence of Olaparib by Annexin V-FITC/PI staining based flow cytometry analysis (reference value: 2.38%); format: functional
MDA-MB-231 [27] = assay: Induction of apoptosis in human MDA-MB-231 cells harboring wild-type BRCA assessed as necrotic cells at 10 uM incubated for 48 hrs in presence of GNE-617 by Annexin V-FITC/PI staining based flow cytometry analysis (reference value: 1.68%); format: functional
MDA-MB-231 [28] = assay: Induction of apoptosis in human MDA-MB-231 cells harboring wild-type BRCA assessed as viable cells at 10 uM incubated for 48 hrs in presence of GNE-617 by Annexin V-FITC/PI staining based flow cytometry analysis (reference value: 94.3%); format: functional; conditions: read-out: Activity
MDA-MB-231 [29] = assay: Induction of apoptosis in human MDA-MB-231 cells harboring wild-type BRCA assessed as early apoptotic cells at 10 uM incubated for 48 hrs in presence of GNE-617 by Annexin V-FITC/PI staining based flow cytometry analysis (reference value: 1.60%); format: functional
MDA-MB-231 [30] = assay: Induction of apoptosis in human MDA-MB-231 cells harboring wild-type BRCA assessed as late apoptotic cells at 10 uM incubated for 48 hrs in presence of GNE-617 by Annexin V-FITC/PI staining based flow cytometry analysis (reference value: 2.38%); format: functional

SMILES: O=C(NCCCCCCN1CCN(C(=O)c2cc(Cc3n[nH]c(=O)c4ccccc34)ccc2F)CC1)c1ccc2nccn2c1
Activity (MDA-MB-231 [1]): 0.031% | IC50 [2]: 0.0008 µM | Activity (MDA-MB-231 [3]): Active | Activity (MDA-MB-231 [4]): 6.09% | Activity (MDA-MB-231 [5]): Active | IC50 (MDA-MB-231 [6]): 0.7 µM | viability at 5 µM (MDA-MB-231 [7]): 68.3% | Activity (MDA-MB-231 [8]): Active | Activity (MDA-MB-231 [9]): 0.41% | IC50 [10]: 0.018 µM | Activity (MDA-MB-231 [11]): 44.2% | Activity (MDA-MB-231 [12]): Active | IC50 (MDA-MB-436): 0.96 µM | Activity (MDA-MB-231 [13]): Dose-dependent-effect | Activity (MDA-MB-231 [14]): 29.8% | Activity (MDA-MB-231 [15]): 1.84% | Activity (MDA-MB-231 [16]): Active | viability at 10 µM (MDA-MB-231 [17]): 49.3%

SMILES: O=C(/C=C/c1cccnc1)NCCCN1CCN(C(=O)c2cc(Cc3n[nH]c(=O)c4ccccc34)ccc2F)CC1
IC50 [2]: 0.0006 µM | IC50 [10]: 0.068 µM

SMILES: O=C(NCc1ccc(S(=O)(=O)c2cc(F)cc(F)c2)cc1)c1ccc2nccn2c1
CI (MDA-MB-231 [18]): <1 | Activity (MDA-MB-231 [19]): 34.6% | IC50 (MDA-MB-231 [6]): 50.9 µM | viability at 15 µM (MDA-MB-231 [20]): 82.7% | Activity (MDA-MB-231 [21]): 0.023% | viability at 15 µM (MDA-MB-231 [22]): 64% | Activity (MDA-MB-231 [23]): 0.023% | IC50 (MDA-MB-436): 34.2 µM | Activity (MDA-MB-231 [24]): 0.19% | Activity (MDA-MB-231 [25]): 17% | Activity (MDA-MB-231 [26]): 1.38%

SMILES: O=C(NCCCCN1CCN(C(=O)c2cc(Cc3n[nH]c(=O)c4ccccc34)ccc2F)CC1)c1ccc2nccn2c1
IC50 [2]: 0.001 µM | IC50 [10]: 0.072 µM

SMILES: O=C(/C=C/c1cccnc1)NCCCCCCN1CCN(C(=O)c2cc(Cc3n[nH]c(=O)c4ccccc34)ccc2F)CC1
IC50 [2]: 0.001 µM | IC50 [10]: 0.349 µM

SMILES: O=C(NCCCCCN1CCN(C(=O)c2cc(Cc3n[nH]c(=O)c4ccccc34)ccc2F)CC1)c1ccc2nccn2c1
IC50 [2]: 0.0018 µM

SMILES: O=C(/C=C/c1cccnc1)NCCCCN1CCN(C(=O)c2cc(Cc3n[nH]c(=O)c4ccccc34)ccc2F)CC1
IC50 [2]: 0.0009 µM | IC50 (MDA-MB-231 [6]): 4.17 µM | IC50 [10]: 0.01 µM | IC50 (MDA-MB-436): 1.44 µM

More lines, main results first:

IC50 [10]: 0.093 µM
SMILES: O=C(/C=C/c1cccnc1)NCCN1CCN(C(=O)c2cc(Cc3n[nH]c(=O)c4ccccc34)ccc2F)CC1

IC50 (MDA-MB-231 [6]): 29.9 µM | IC50 (MDA-MB-436): 1.18 µM
SMILES: O=C(c1cc(Cc2n[nH]c(=O)c3ccccc23)ccc1F)N1CCN(C(=O)C2CC2)CC1 [OLAPARIB]
Activity (MDA-MB-231 [27]): 0.023% | Activity (MDA-MB-231 [4]): 0.041% | Activity (MDA-MB-231 [9]): 0.006% | Activity (MDA-MB-231 [11]): 12.4% | viability at 10 µM (MDA-MB-231 [28]): 64% | Activity (MDA-MB-231 [29]): 34.6% | viability at 10 µM (MDA-MB-231 [17]): 87.5% | Activity (MDA-MB-231 [30]): 1.38%

IC50 [2]: 0.0016 µM | IC50 (MDA-MB-231 [6]): 2.54 µM | IC50 [10]: 0.014 µM | IC50 (MDA-MB-436): 1.12 µM
SMILES: O=C(/C=C/c1cccnc1)NCCCCCN1CCN(C(=O)c2cc(Cc3n[nH]c(=O)c4ccccc34)ccc2F)CC1

Reference: ChEMBL document CHEMBL6109063, “Discovery of dual PARP/NAMPT inhibitors for the treatment of BRCA wild-type triple-negative breast cancer” (Bioorg Med Chem Lett, 2025)
